Assay results from patent publication US7241777B2, “Benzylimidazolyl substituted 2-quinoline and quinazoline derivatives for use as farnesyl transferase inhibitors” (Janssen Pharmaceutica N.V., priority 2002, dated 2007).
Where two headings read alike, the source gives them in different places.

Assays:
[1] = molecular target: farnesyl protein transferase (Homo sapiens, UniProt P49354+P49356); assay: In vitro assay for inhibition of farnesyl protein transferase; format: biochemical; details: for IC50: negative log value of the IC50-value; for inhibition at 0.1 µM: read-out: % of inhibition at 10^−7 M
Experimental: “In Vitro Assay for Inhibition of Farnesyl Protein Transferase”
An in vitro assay for inhibition of farnesyl transferase was performed essentially as described in WO 98/40383pages 33–34.

[2] = read-out: Enzyme activity pIC50 (converted)

| Structure (SMILES) | melting point [°C] | IC50 [1, 2] [nM] | IC50 ([1]; read-out: pIC50 (converted)) [nM] | inhibition at 0.1 µM [1] [%] |
| --- | --- | --- | --- | --- |
| Cn1c(=O)cc(-c2cccc(Cl)c2)c2cc(C(O)c3cncn3Cc3ccc(C#N)cc3)ccc21 (stereo not drawn) [Compound 3, 4-[[5-[[4-(3-chlorophenyl)-1,2-dihydro-1-methyl-2-oxo-6-quinolinyl]hydroxymethyl]-1H-imidazol-1-yl]methyl]-benzonitrile] | 150 | 5.45 | 5.01 | 92 |
| O=C(c1ccc2c(c1)c(-c1cccc(Cl)c1)cc1nnnn12)c1cncn1Cc1ccc(Cl)cc1 [Compound 4] | 105 | > 100 | – | 26 |
| OC(c1ccc2c(c1)c(-c1cccc(Cl)c1)cc1nnnn12)c1cncn1Cc1ccc(Cl)cc1 (stereo not drawn) [Compound 5] | 140 | > 100 | – | 32 |
| Cn1c(=O)cc(-c2cccc(Cl)c2)c2cc(C(=O)c3cncn3Cc3ccccc3)ccc21 [Compound 7] | 192 | – | – | – |
| Cn1c(=O)cc(-c2cccc(Cl)c2)c2cc(C(O)c3cncn3Cc3ccccc3)ccc21 (stereo not drawn) [Compound 8] | 188 | – | – | – |
| Cn1c(=O)cc(-c2cccc(Cl)c2)c2cc(C(NC3CC3)c3cncn3Cc3ccccc3)ccc21 (stereo not drawn) [Compound 9] | – | > 100 | – | 44 |
| COC(c1ccc2c(c1)c(-c1cccc(Cl)c1)cc(=O)n2C)c1cncn1Cc1ccccc1 (stereo not drawn) [Compound 10] | – | > 100 | – | 43 |
| Cn1c(=O)cc(-c2cccc(Cl)c2)c2cc(C(N)c3cncn3Cc3ccccc3)ccc21 (stereo not drawn) [Compound 11] | – | > 100 | – | 49 |
| Cn1c(=O)cc(-c2cccc(Cl)c2)c2cc(C(c3cncn3Cc3ccccc3)n3ccnc3)ccc21 (stereo not drawn) [Compound 12] | 102 | > 100 | – | 47 |
| CC(=O)NC(c1ccc2c(c1)c(-c1cccc(Cl)c1)cc(=O)n2C)c1cncn1Cc1ccccc1 (stereo not drawn) [Compound 13] | 210 | < 100 | – | 65 |
| N#Cc1ccc(Cn2cncc2C(O)c2ccc3c(c2)c(-c2cccc(Cl)c2)cc2nnnn23)cc1 (stereo not drawn) [Compound 14] | – | – | 10.8 | 87 |
| O=C(c1ccc2c(c1)c(-c1cccc(Cl)c1)cc(=O)n2CC1CC1)c1cncn1Cc1ccc(Cl)cc1 [Compound 16] | – | > 100 | – | 18 |
| N#Cc1ccc(Cn2c(=O)cc(-c3cccc(Cl)c3)c3cc(C(=O)c4cncn4Cc4ccc(Cl)cc4)ccc32)cc1 [Compound 17] | – | > 100 | – | 33 |
